≈ marks a conversion by molar mass, not a printed value. Read-outs that look alike come from different tables or passages of the source.
Key:
Type in all cases: cell-based, Staphylococcus aureus
S. aureus/MRSA strains = assay: MIC by broth microdilution, S. aureus/MRSA strains; settings: S. aureus/MRSA strains tested, strain not singled out
Description: To assess the impact of the nitrogen position in our newly synthesized anaephene derivates, we analyzed their antimicrobial activities against various S. aureus strains, including ATCC 25,923 and the two methicillin-resistant S. aureus (MRSA) strains ATCC 33,591 and ATCC BAA-44. […] We determined the minimum inhibitory concentrations (MIC) of each of our compounds against the different bacterial strains by broth microdilution following the CLSI guidelines. As expected, all five compounds tested were completely ineffective against the Gram-negative P. aeruginosa strain ATCC 27,853 (Table 1).
The MIC values of the alkyl pyridinol derivatives against the S. aureus strain ATCC 25923, MRSA strains ATCC 33591, ATCC BAA-44, and USA300LAC, as well as the P. aeruginosa strain ATCC 27853, were determined by following the CLSI guidelines for the broth microdilution antibiotic sensitivity testing protocol. In brief, the overnight cultures were diluted into Mueller Hinton Broth (MHB) to a final inoculum concentration of 5 × 10^5 CFU/mL (O.D600nm = 0.00001) and dispensed into a 96-well polystyrene plate (Alkali Scientific, Fort Lauderdale, FL, USA). Alkyl pyridine compounds were diluted into inoculated MHB to the indicated concentrations from stock solutions that would allow for DMSO concentrations below 5%, resulting in a total volume of 200 μL per well. The plates were subsequently incubated at 37 °C for 16 h at 300 rpm. The MIC values, which are defined as the lowest compound concentration that inhibited growth, were determined from three biological replicates.

[1] = tested on: S. aureus strain USA300LAC; assay: Growth curve-based assay of exponentially growing cells
Procedure: Considering the divergent antimicrobial effects of our new compounds, we proceeded to assess the impact of JC-01-072 and JC-01-074 on the growth of exponentially growing USA300LAC cells. We performed growth-curve-based assays of the USA300LAC cultures that were either left untreated or treated with 4–16 μg/mL of the alkyl pyridinol compound once they reached the mid-log phase (OD600nm~0.2–0.3).
Figure 2 Impact of alkyl pyridinol exposure on exponentially growing S. aureus. An overnight culture of the S. aureus strain USA300LAC was diluted into fresh TSB and grown to mid-exponential phase (OD600nm = 0.2–0.3) prior to treatment with 4–16 µg/mL JC-01-072 (A) and JC-01-074 (B). Optical densities were measured at 600 nm at 10 min intervals for 16–18 h (n = 3, ±S.D.).
The overnight USA300LAC cultures were diluted into fresh TSB media to an O.D.600nm = 0.001 and incubated at 37 °C under shaking conditions (300 rpm) until an O.D.600nm of 0.2–0.3 (early log phase) was reached. The cultures were subsequently transferred to a 96-well polystyrene plate (Alkali Scientific, Fort Lauderdale, FL, USA), following which DMSO (control) or alkyl pyridine compounds were added at the indicated final concentrations. The cells were then incubated at 37 °C for 16 h at 300 rpm, and the O.D.600nm measurements were taken every 10 min for 16 h in a Tecan Infinite 200 plate reader (Tecan, Morgan Hill, CA, USA).

USA300LAC cells = assay: Propidium iodide uptake assay (membrane damage)
Description: The alkyl pyridinol derivates synthesized in this study are characterized by high lipophilicity. To determine whether and to what extent these compounds incorporate into and disrupt the phospholipid bilayer of the S. aureus cell envelope, we performed a propidium iodide (PI) uptake assay. Given the membrane-impermeable nature of PI, the fluorophore can be used to assess membrane disruption in cells by measuring its non-specific interaction with DNA, which leads to enhanced fluorescence. […] The extent of membrane damage caused by JC-01-074 occurred in a dose-dependent manner.
Figure 4 JC-01-074 causes significant membrane damage in S. aureus. Membrane damage was evaluated via propidium iodide (PI) staining. […] Treatment of USA300LAC with 2.5% DMSO, 4 µg/mL vancomycin, and 0.25% SDS were included as negative and positive controls, respectively. Cells were collected, washed, resuspended in PBS, and stained with 1 µM PI. PI fluorescence was measured (exc./em. wavelengths: 535/615 nm) and normalized to OD600nm. One-way ANOVA, Dunnett’s multiple-comparison test (* p < 0.05, **** p < 0.0001); (n = 3, ±S.D.).
The plasma membrane integrity was determined using the Propidium Iodide Uptake assay, as previously described. Briefly, the overnight cultures of USA300LAC were diluted into fresh TSB media, grown to an early log phase at 37 °C and 300 rpm, and treated with either DMSO, an alkyl pyridinol derivate, vancomycin, or SDS at the indicated concentrations for 1 h. Following two washing steps, the cells were then resuspended in phosphate-buffered saline (PBS), pH = 7.4, and subsequently stained with 1 µM propidium iodide (PI). The PI fluorescence intensity was determined at an excitation wavelength of 535 nm and an emission wavelength of 615 nm.

[2] = Staphylococcus aureus, MRSA, read-out: MIC

MIC (S. aureus/MRSA strains) [µg/mL] | MIC (S. aureus/MRSA strains; [2]) [µg/mL] | effect on growth at 1× MIC ([1]; 1× MIC, mid-log USA300LAC) | SMILES | effect on growth of mid-log USA300LAC cells ([1]; 4–16 μg/mL, added at OD600nm ~0.2–0.3) | changes in PI intensity (USA300LAC cells; up to 2× MIC, 1 h exposure) | delay of growth ([1]; 0.5× MIC, mid-log USA300LAC) [h] | PI fluorescence compared to DMSO-treated control (USA300LAC cells; 1 h treatment at MIC ([…] µg/mL))
4 to 8 | 4 (≈ 16.3 µM) | – | CCCCCCCCCC#Cc1cncc(O)c1 [JC-01-072] | little to no effects | minimal changes | – | –
– | 16 (≈ 65.2 µM) | total growth arrest | CCCCCCCCCC#Cc1cccc(O)n1 [JC-01-074] | – | – | 6 to 8 | about five-fold higher PI fluorescence
